Consider five molecules from patent publication US5312923A, “Process for preparing fibrinogen receptor antagonists” (Merck & Co., Inc., priority 1993, dated 1994).

This assay concerns ADP-stimulated platelets. The assay can be described thus: Inhibition of ADP-stimulated platelet aggregation (gel-filtered human platelets). Type of assay: cell-based. Particulars: read-out: IC50 (concentration required to inhibit aggregation by 50% relative to a control lacking the compound), gel-filtered human platelets 2×10^8 per ml, fibrinogen 100 ug/ml, Ca^2+ 1 mM, 10 mM ADP, 37° C. The protocol:
The activity of these fibrinogen receptor antagonists is illustrated below. One test used to evaluate fibrinogen receptor antagonist activity is based on evaluation of inhibition of ADP-stimulated platelets. Aggregation requires that fibrinogen bind to and occupy the platelet fibrinogen receptor site. Inhibitors of fibrinogen binding inhibit aggregation. […] Platelet aggregation is measured at 37° C. in a Chronolog aggregometer. The reaction mixture contains gel-filtered human platelets (2×10^8 per ml), fibrinogen (100 micrograms per ml (ug/ml)), Ca^2+ (1 mM), and the fibrinogen receptor antagonists tested. The aggregation is initiated by adding […] ADP 1 minute after the other components are added. The reaction is then allowed to proceed for at least 2 minutes. The extent of inhibition of aggregation is expressed as the percentage of the rate of aggregation observed in the absence of inhibitor. […] Inhibition of ADP-stimulated platelets is shown below in Table 1, which compares the concentration (dosage) of fibrinogen receptor antagonist required to inhibit aggregation by 50% relative to a control lacking the fibrinogen receptor antagonist.
Turning to `CCCCS(=O)(=O)N[C@@H](Cc1ccc(OCCCCC2CCNCC2)cc1)C(=O)O`, the IC50 stood at 15 nM.

For the molecule `O=C(O)[C@H](Cc1ccc(OCCCCC2CCNCC2)cc1)NS(=O)(=O)Cc1ccccc1`, the IC50 stood at 18 nM.

Regarding `O=C(O)[C@H](Cc1ccc(OCCCCC2CCNCC2)cc1)NS(=O)(=O)c1ccccc1`, the IC50 stood at 18 nM.

Regarding `O=C(O)[C@H](Cc1ccc(OCCCCC2CCNCC2)cc1)NS(=O)(=O)CCc1ccccc1`, the IC50 is 29 nM.

Regarding `CS(=O)(=O)N[C@@H](Cc1ccc(OCCCCC2CCNCC2)cc1)C(=O)O`, the IC50 was determined as 63 nM.
